Measured values taken from patent US8541434B2, “Ethynyl-substituted pyridine and pyrimidine derivatives and their use in treating viral infections” (Merck Sharp & Dohme Corp., priority 2008, dated 2013).

tested on: HCV replicon cells; assay: Cell-based HCV replicon assay (replicon RNA level by real time PCR, Taqman); details: Hepatitis C virus, 72 h, harvested on day 3, EC90 = concentration necessary to achieve ΔCT=3.2 over the baseline, read-out: EC90 Range
Description: Assays Cell-Based HCV Replicon Assay
To measure cell-based anti-HCV activity of the compounds of the present invention, replicon cells were seeded at 5000 cells/well in 96-well collagen I-coated Nunc plates in the presence of the compound of the invention. […] The final concentration of DMSO was 0.5%, fetal bovine serum was 10%, in the assay media. Cells were harvested on day 3 by the addition of 1× cell lysis buffer (Ambion cat #8721). The replicon RNA level was measured using real time PCR (Taqman assay). The amplicon was located in 5B. […] GAPDH RNA was used as endogenous control and was amplified in the same reaction as NS5B (multiplex PCR) using primers and VIC-labeled probe recommended by the manufacturer (PE Applied Biosystem). The real-time RT-PCR reactions were run on ABI PRISM 7900HT Sequence Detection System using the following program: 48° C. for 30 min, 95° C. for 10 min, 40 cycles of 95° C. for 15 sec, 60° C. for 1 min. The ACT values (CT5B-CTGAPDH) were plotted against the concentration of test compound and fitted to the sigmoid dose-response model using GraphPad PRISM software. EC50 was defined as the concentration of inhibitor necessary to achieve ΔCT=1 over the projected baseline; EC90 the concentration necessary to achieve ΔCT=3.2 over the baseline. Alternatively, to quantitate the absolute amount of replicon RNA, a standard curve was established by including serially diluted T7 transcripts of replicon RNA in the Taqman assay. All Taqman reagents were from PE Applied Biosystems. Such an assay procedure was described in detail in e.g. Malcolm et al., Antimicrobial Agents and Chemotherapy 50: 1013-1020 (2006).

Compound	EC90 [nM]
CCOc1ccc(C#Cc2c(C)nc(N)nc2N[C@@H]2C[C@H](CO)[C@@H](O)[C@H]2O)cn1 [Compound 1]	≤ 500
CN(C)c1nc(Cl)c(C#Cc2cccs2)c(N[C@@H]2C[C@H](CO)[C@@H](O)[C@H]2O)n1 [Compound 48]	> 5000
Nc1nc(Cl)c(C#Cc2ccc(C(=O)C(F)(F)F)s2)c(N[C@@H]2C[C@H](CO)[C@@H](O)[C@H]2O)n1 [Compound 40]	500 to 5000
CNc1nc(Cl)c(C#Cc2ccc(OC)nc2)c(N[C@@H]2C[C@H](CO)[C@@H](O)[C@H]2O)n1 [Compound 19]	≤ 500
COc1ncccc1C#Cc1c(Cl)nc(N)nc1N[C@@H]1C[C@H](CO)[C@@H](O)[C@H]1O [Compound 12]	500 to 5000
CNc1nc(Cl)c(C#Cc2ccc(OC)nc2C)c(N[C@@H]2C[C@H](CO)[C@@H](O)[C@H]2O)n1 [Compound 65]	≤ 500
CCOc1ccc(C#Cc2c(Cl)nc(NCCOC)nc2N[C@@H]2C[C@H](CO)[C@@H](O)[C@H]2O)cn1 [Compound 73]	≤ 500
CCCc1ccc(C#Cc2c(Cl)nc(N)nc2N[C@@H]2C[C@H](CO)[C@@H](O)[C@H]2O)cn1 [Compound 79]	≤ 500
Cc1nc(-c2ccccc2)c(C#Cc2c(Cl)nc(NCC(F)(F)F)nc2N[C@@H]2C[C@H](CO)[C@@H](O)[C@H]2O)s1 [Compound 101]	500 to 5000
CCNc1nc(C)c(C#Cc2ccc(OCC)nc2)c(N[C@@H]2C[C@H](CO)[C@@H](O)[C@H]2O)n1 [Compound 88]	≤ 500
Cc1ccc(C#Cc2c(Cl)nc(N)nc2N[C@@H]2C[C@H](CO)[C@@H](O)[C@H]2O)cn1 [Compound 5]	500 to 5000
COc1ccc(C#Cc2c(Cl)nc(N(C)C)nc2N[C@@H]2C[C@H](CO)[C@@H](O)[C@H]2O)cn1 [Compound 24]	> 5000
COc1ccc(C#Cc2c(C)nc(NCc3c(OC)cccc3OC)nc2N[C@@H]2C[C@H](CO)[C@@H](O)[C@H]2O)cn1 [Compound 93]	≤ 500
Cc1nc(-c2nccs2)ccc1C#Cc1c(Cl)nc(N)nc1N[C@@H]1C[C@H](CO)[C@@H](O)[C@H]1O [Compound 63]	≤ 500
CCCNc1nc(C)c(C#Cc2ccc(OCC)nc2)c(N[C@@H]2C[C@H](CO)[C@@H](O)[C@H]2O)n1 [Compound 87]	≤ 500
COc1ccc(C#Cc2c(C)nc(NCC3CC3)nc2N[C@@H]2C[C@H](CO)[C@@H](O)[C@H]2O)c(OC)n1 [Compound 95]	≤ 500
OC[C@H]1C[C@@H](Nc2nc(NCC(F)(F)F)nc(Cl)c2C#Cc2ccc(-c3ccccn3)s2)[C@H](O)[C@@H]1O [Compound 97]	≤ 500
CCOc1ccc(C#Cc2c(Cl)nc(NCCOC)nc2N[C@@H]2C[C@H](CO)[C@@H](O)[C@H]2O)c(C)n1 [Compound 71]	≤ 500
Nc1nc(Cl)c(C#Cc2ccc(-c3ccccn3)s2)c(N[C@@H]2C[C@H](CO)[C@@H](O)[C@H]2O)n1 [Compound 34]	≤ 500
CNc1nc(Cl)c(C#Cc2ccccc2C(=O)OC(C)C)c(N[C@@H]2C[C@H](CO)[C@@H](O)[C@H]2O)n1 [Compound 50]	500 to 5000

Compound	EC90 [nM]
Cc1nc(NCc2ccccn2)nc(N[C@@H]2C[C@H](CO)[C@@H](O)[C@H]2O)c1C#Cc1ccsc1 [Compound 102]	≤ 500
CCOc1ccc(C#Cc2c(Cl)nc(N)nc2N[C@@H]2C[C@H](CO)[C@@H](O)[C@H]2O)c(C)n1 [Compound 2]	≤ 500
COCCNc1nc(C)c(C#Cc2ccc(OC)nc2OC)c(N[C@@H]2C[C@H](CO)[C@@H](O)[C@H]2O)n1 [Compound 94]	≤ 500
Nc1nc(Cl)c(C#Cc2ccc(-c3ccccc3)cc2)c(N[C@@H]2C[C@H](CO)[C@@H](O)[C@H]2O)n1 [Compound 44]	500 to 5000
COc1ccc(C#Cc2c(C)nc(NCC(F)(F)F)nc2N[C@@H]2C[C@H](CO)[C@@H](O)[C@H]2O)cn1 [Compound 90]	500 to 5000
CCOc1ccc(C#Cc2c(C)nc(NCC(F)(F)F)nc2N[C@@H]2C[C@H](CO)[C@@H](O)[C@H]2O)cn1 [Compound 86]	≤ 500
Nc1nc(Cl)c(C#Cc2ccc(C3CCCCN3)s2)c(N[C@@H]2C[C@H](CO)[C@@H](O)[C@H]2O)n1 (some centres unmarked) [Compound 31]	≤ 500
Cc1ccsc1C#Cc1c(Cl)nc(N)nc1N[C@@H]1C[C@H](CO)[C@@H](O)[C@H]1O [Compound 7]	500 to 5000
COc1ccc(C#Cc2c(C)nc(NCCCO)nc2N[C@@H]2C[C@H](CO)[C@@H](O)[C@H]2O)cn1 [Compound 78]	≤ 500
Nc1nc(Cl)c(C#Cc2cncs2)c(N[C@@H]2C[C@H](CO)[C@@H](O)[C@H]2O)n1 [Compound 37]	500 to 5000
Nc1nc(Cl)c(C#Cc2ccc(Cl)cc2)c(N[C@@H]2C[C@H](CO)[C@@H](O)[C@H]2O)n1 [Compound 27]	500 to 5000
COC(=O)c1ncccc1C#Cc1c(Cl)nc(N(C)C)nc1N[C@@H]1C[C@H](CO)[C@@H](O)[C@H]1O [Compound 62]	500 to 5000
COC(=O)c1nc(N)sc1C#Cc1c(Cl)nc(N)nc1N[C@@H]1C[C@H](CO)[C@@H](O)[C@H]1O [Compound 32]	≤ 500
CCOc1ccc(C#Cc2c(C)nc(NCC(C)(C)C)nc2N[C@@H]2C[C@H](CO)[C@@H](O)[C@H]2O)cn1 [Compound 85]	≤ 500
CCOc1ccc(C#Cc2c(C)nc(NCCF)nc2N[C@@H]2C[C@H](CO)[C@@H](O)[C@H]2O)cn1 [Compound 89]	500 to 5000
COCCNc1nc(Cl)c(C#Cc2ccc(OCC(F)(F)F)nc2C)c(N[C@@H]2C[C@H](CO)[C@@H](O)[C@H]2O)n1 [Compound 69]	500 to 5000
COc1ccc(C#Cc2c(Cl)nc(N)nc2N[C@@H]2C[C@H](CO)[C@@H](O)[C@H]2O)cn1 [Compound 20, (1R,2S,3R,5R)-3-[[2-Amino-6-chloro-5-[2-(2-methoxypyridin-5-yl)ethynyl]-4-pyrimidinyl]amino]-5-(hydroxymethyl)-1,2-cyclopentanediol]	≤ 500
Cc1nc(N)nc(N[C@@H]2C[C@H](CO)[C@@H](O)[C@H]2O)c1C#Cc1nccs1 [Compound 80]	500 to 5000
COC[C@H]1C[C@@H](Nc2nc(N)nc(Cl)c2C#Cc2ccsc2)[C@H](O)[C@@H]1O [Compound 61]	500 to 5000
Nc1nc(Cl)c(C#Cc2ccc(-c3ccno3)s2)c(N[C@@H]2C[C@H](CO)[C@@H](O)[C@H]2O)n1 [Compound 43]	500 to 5000

Compound	EC90 [nM]
CC(C)Oc1ncccc1C#Cc1c(Cl)nc(N)nc1N[C@@H]1C[C@H](CO)[C@@H](O)[C@H]1O [Compound 14]	500 to 5000
COc1ccc(C#Cc2c(C)nc(NCCSC)nc2N[C@@H]2C[C@H](CO)[C@@H](O)[C@H]2O)cn1 [Compound 84]	≤ 500
CNc1nc(Cl)c(C#Cc2ccc(SC)nc2C)c(N[C@@H]2C[C@H](CO)[C@@H](O)[C@H]2O)n1 [Compound 66]	≤ 500
COc1ccc(C#Cc2c(C)nc(NCC3CC3)nc2N[C@@H]2C[C@H](CO)[C@@H](O)[C@H]2O)cn1 [Compound 92]	≤ 500
COc1ccc(C#Cc2c(Cl)nc(N)nc2N[C@@H]2C[C@H](CO)[C@@H](O)[C@H]2O)c(OC)n1 [Compound 22]	≤ 500
COc1ccc(C#Cc2c(C)nc(NCCCO)nc2N[C@@H]2C[C@H](CO)[C@H]3OC(C)(C)O[C@H]32)cn1 [Compound 83]	500 to 5000
Cc1csc(C#Cc2c(Cl)nc(N)nc2N[C@@H]2C[C@H](CO)[C@@H](O)[C@H]2O)n1 [Compound 46]	> 5000
Nc1nc(Cl)c(C#Cc2ccoc2)c(N[C@@H]2C[C@H](CO)[C@@H](O)[C@H]2O)n1 [Compound 11]	500 to 5000
COCCNc1nc(Cl)c(C#Cc2ccc(OC)nc2)c(N[C@@H]2C[C@H](CO)[C@@H](O)[C@H]2O)n1 [Compound 75]	≤ 500
Cc1ccc(C#Cc2c(Cl)nc(N)nc2N[C@@H]2C[C@H](CO)[C@@H](O)[C@H]2O)c(C)n1 [Compound 16]	≤ 500
COc1ccc(C#Cc2c(Cl)nc(NCC(F)(F)F)nc2N[C@@H]2C[C@H](CO)[C@@H](O)[C@H]2O)cn1 [Compound 76]	≤ 500
Nc1nc(Cl)c(C#Cc2ncc(CO)s2)c(N[C@@H]2C[C@H](CO)[C@@H](O)[C@H]2O)n1 [Compound 47]	> 5000
Cc1nc(-c2cccs2)ccc1C#Cc1c(Cl)nc(N)nc1N[C@@H]1C[C@H](CO)[C@@H](O)[C@H]1O [Compound 18]	≤ 500
CCc1nc(C)ccc1C#Cc1c(Cl)nc(N)nc1N[C@@H]1C[C@H](CO)[C@@H](O)[C@H]1O [Compound 17]	500 to 5000
CCOc1ccc(C#Cc2c(Cl)nc(N)nc2N[C@@H]2C[C@H](CO)[C@@H](O)[C@H]2O)cn1 [Compound 21]	≤ 500
COCCNc1nc(C)c(C#Cc2ccc(OC)nc2C)c(N[C@@H]2C[C@H](CO)[C@@H](O)[C@H]2O)n1 [Compound 82]	≤ 500
Nc1nc(Cl)c(C#Cc2cccnc2Cl)c(N[C@@H]2C[C@H](CO)[C@@H](O)[C@H]2O)n1 [Compound 10]	500 to 5000
CCNC(=O)c1ncccc1C#Cc1c(Cl)nc(N)nc1N[C@@H]1C[C@H](CO)[C@@H](O)[C@H]1O [Compound 56]	500 to 5000
COc1ccc(C#Cc2c(Cl)nc(NCC(F)(F)F)nc2N[C@@H]2C[C@H](CO)[C@@H](O)[C@H]2O)c(C)n1 [Compound 68]	≤ 500
